The conditions of series [1]: C.A. 95:36562k; cited from earlier work.
For series [2] the following is noted: C.A. 98:100331a; cited from earlier work.
In another series the test system is man. To be noted: cited from earlier work.
Another series concerns dog. As to conditions: scu-dog; cited from earlier work.
The test system of another series is mus. To be noted: scu-mus; cited from earlier work.
For series [3] the following is noted: 25° C.; cited from earlier work.
Series [4] relates to gpg. To be noted: orl-gpg; cited from earlier work.
For series [5] the following is noted: C.A. 103:136646t; cited from earlier work.
The conditions of series [6]: C.A. 101:205528d; cited from earlier work.
Series [7] can be described thus: Time required to form solid-state, sodium silicofluoride added to Neoprene 671 latex. In kind it is physicochemical. The source says:
If the overspray method is not preferred, an in-situ solidifying compound can be used that reduces the application process to a single step. To effect in-situ transformation from the liquid to the solid state, about 0.25 to about 6 parts of a solidifying compound such as ammonium silicofluoride, sodium silicofluoride, or potassium silicofluoride per hundred parts solid resin (phr) may be added to the liquid-state composition as a finely ground (e.g., ball milled) dispersion just prior to application.
The time required to form a solid-state will vary according to concentration of solidifying compound and polymer type. By way of example, when sodium silicofluoride was added to Neoprene 671 latex, the following results were attained.

For series [8] the following is noted: C.A. 96:47119t, 101:189850v; cited from earlier work.
For series [9] the following is noted: C.A. 100:116031y; cited from earlier work.
For series [10], the system named is gpg. Briefly: Oral toxicity orl-gpg LDLo (lead toxicity mitigation). As to conditions: transformation of lead oxide to lead sulfide.
Series [11] can be described thus: Copper oxide cleaning (Example 5), painted cinder block. To be noted: weight loss. On the procedure:
Samples of coarse, deep pore cinder block (2×2×1/2 inch) were sealed by spray applying a 4-7 mil wet film thickness coating of interior, semigloss alkyd paint. The coated samples were air dried at ambient temperature for 7 days and subsequently cured at 150° F. for 8 hours. A 5% dispersion of copper oxide in hexane was spray applied until the dry copper oxide up-take reached approximately 250 mg/sample. After spraying, the samples were allowed to dry at ambient temperature for 24 hours, whereupon 20-25 wet mils of the liquid-state composition were spray applied over the contaminated surfaces. After 10 minutes, the liquid-statecomposition was scrubbed into the surface using the circular action of a nylon dental brush. After 20 scrub cycles, the brush was removed, and an additional 25-30 mils wet film thickness of liquid-state composition were spray applied over the treated area. After drying for 24 hours at ambient temperature, the solid-state matrix was removed and the reverse side was inspected. […] The larger matrix projections reached 0.6 to 0.9 mm in length. […] A subtle discoloration of the white alkyd paint (graying) was noted. Weight-loss measurements indicated 78% removal of CuO. […]

The conditions of series [12]: Sax, 6th Ed., P. 347; cited from earlier work.

Where two headings read alike, the source gives them in different places.

The term LD50 denotes the dose expected to kill half of the subjects tested.

With `O=C(O)C(S)C(S)C(=O)O` (centres unmarked) [2,3-dimercaptosuccinic acid], the “antidotal activity for antimony” value in [1] was “provides antidotal activity for antimony”. Consider `O=Cc1ccc(O)cc1O` [2,4-dihydroxybenzaldehyde], for which the “spray-on reagent for identification of arsenic III” value in series [2] is recorded as “useful as a spray-on reagent for the identification of arsenic III”. As for `[Sb]` [Antimony], the LDLo with man (unk.-man) is 15 mg/kg.

With `[Ba]` [Barium], the LDLo in the series on man (orl-hmm) is 11.4 mg/kg. Turning to `[Cd]` [Cadmium], in the series on man (inhl-man), the TCLo is reported as 40 μg/m^3. Take `[Cr]` [Chromium]: the LDLo in the series with dog was 330 mg/kg. As to `[Cu]` [Copper], the TDLo in the series with man (orl-hmn) is 0.12 mg/kg. Take `C=O` [Formaldehyde]: in the series with mus, the median lethal dose (LD50) is recorded as 300 mg/kg and the toxicity grade entry was “Severe toxicity”. In [3], the Vapor pressure was 0.187 kPa. In the case of `[Cl][Pb][Cl]` [Lead chloride], in the series with gpg [4], the LDLo is 2000 mg/kg. On to `O=C(O)CN(CC(=O)O)CC(=O)O` [N,N-bis(carboxymethyl)glycine], for which the “antidotal activity for chromium” value in series [5] is “provides antidotal activity for chromium”. For `O=C(O)c1ccccc1C(=O)NCC(S)CS` (centres unmarked) [N-(2,3-dimercaptopropyl)phthalamidic acid], in [6], the “antidotal activity for sodium arcenate” value was “provides antidotal activity for sodium arcenate”.

Turning to `F[Si-2](F)(F)(F)(F)F.[Na+].[Na+]` [Sodium Silicofluoride, sodium silicofluoride], the “Time Required to Form Solid-State” value in series [7] (2 phr added to Neoprene 671 latex) is 150 min; in series [7] (2.5 phr added to Neoprene 671 latex), 18 min; in [7] (3 phr added to Neoprene 671 latex) it was 7 min; in series [7] (4 phr added to Neoprene 671 latex), 5 min. Turning to `O=P(O)(O)O[C@H]1[C@H](OP(=O)(O)O)[C@@H](OP(=O)(O)O)[C@H](OP(=O)(O)O)[C@@H](OP(=O)(O)O)[C@H]1OP(=O)(O)O` [Sodium phytate], the antidotal activity result in series [8] is “provides antidotal activity”.

In the case of `[SH-].[SH-].[S]=[Mo]=[S]` [Tetrathiomolybdate (VI)], the “antidotal activity for copper” value in [9] is given as “provides antidotal activity for copper”.

For the compound `O=C([O-])[O-].O=C([O-])[O-].[OH-].[OH-].[Pb+2].[Pb+2].[Pb+2]` [White lead], the Symptoms entry with man (in vivo) is “Same as lead halides”. Besides, the TDLo in the series on man (orl-man) is 214 mg/kg. Take `[S]=[Pb]` [lead sulfide]: the LDLo with gpg [4] was 10 gm/Kg. Besides, the reduction in toxicity with gpg [10] is recorded as 10 fold. With `O=P([O-])([O-])[O-].[Na+].[Na+].[Na+]` [trisodiumphosphate], in [11], the “removal of CuO” value amounted to 55%. In the case of Barium sulfate, the acute toxicity result in series [12] is “not being acutely toxic”. Turning to Formaldehyde Hydrosulfate, in the series on mus, the LDLo is given as 3000 mg/kg and the toxicity grade result was “Moderate toxicity”. Besides, the Vapor pressure entry in series [3] was “No vapor pressure”.

For the compound lead oxide, the LDLo with gpg [4] was 1000 mg/kg.

The record behind these values is patent US5421897A, “Abatement process for contaminants” (priority 1992, dated 1995).
